Measurements: US20140155389A1, “BICYCLIC INHIBITORS OF ALK” (ABBVIE INC., priority 2011, published 2014)

Target: T1, ALK (Homo sapiens, UniProt Q9UM73)
T1 construct: purchased Millipore
Test: ALK kinase assay (HTRF)
Type: biochemical
Details: apparent Ki from IC50 by Cheng-Prusoff; ALK (Millipore) 3 nM or 4 nM, 50 μM ATP, 1 h at room temperature; read-out: HTRF_ALK Human - Ki

T1 sequence (Q9UM73 19-1620): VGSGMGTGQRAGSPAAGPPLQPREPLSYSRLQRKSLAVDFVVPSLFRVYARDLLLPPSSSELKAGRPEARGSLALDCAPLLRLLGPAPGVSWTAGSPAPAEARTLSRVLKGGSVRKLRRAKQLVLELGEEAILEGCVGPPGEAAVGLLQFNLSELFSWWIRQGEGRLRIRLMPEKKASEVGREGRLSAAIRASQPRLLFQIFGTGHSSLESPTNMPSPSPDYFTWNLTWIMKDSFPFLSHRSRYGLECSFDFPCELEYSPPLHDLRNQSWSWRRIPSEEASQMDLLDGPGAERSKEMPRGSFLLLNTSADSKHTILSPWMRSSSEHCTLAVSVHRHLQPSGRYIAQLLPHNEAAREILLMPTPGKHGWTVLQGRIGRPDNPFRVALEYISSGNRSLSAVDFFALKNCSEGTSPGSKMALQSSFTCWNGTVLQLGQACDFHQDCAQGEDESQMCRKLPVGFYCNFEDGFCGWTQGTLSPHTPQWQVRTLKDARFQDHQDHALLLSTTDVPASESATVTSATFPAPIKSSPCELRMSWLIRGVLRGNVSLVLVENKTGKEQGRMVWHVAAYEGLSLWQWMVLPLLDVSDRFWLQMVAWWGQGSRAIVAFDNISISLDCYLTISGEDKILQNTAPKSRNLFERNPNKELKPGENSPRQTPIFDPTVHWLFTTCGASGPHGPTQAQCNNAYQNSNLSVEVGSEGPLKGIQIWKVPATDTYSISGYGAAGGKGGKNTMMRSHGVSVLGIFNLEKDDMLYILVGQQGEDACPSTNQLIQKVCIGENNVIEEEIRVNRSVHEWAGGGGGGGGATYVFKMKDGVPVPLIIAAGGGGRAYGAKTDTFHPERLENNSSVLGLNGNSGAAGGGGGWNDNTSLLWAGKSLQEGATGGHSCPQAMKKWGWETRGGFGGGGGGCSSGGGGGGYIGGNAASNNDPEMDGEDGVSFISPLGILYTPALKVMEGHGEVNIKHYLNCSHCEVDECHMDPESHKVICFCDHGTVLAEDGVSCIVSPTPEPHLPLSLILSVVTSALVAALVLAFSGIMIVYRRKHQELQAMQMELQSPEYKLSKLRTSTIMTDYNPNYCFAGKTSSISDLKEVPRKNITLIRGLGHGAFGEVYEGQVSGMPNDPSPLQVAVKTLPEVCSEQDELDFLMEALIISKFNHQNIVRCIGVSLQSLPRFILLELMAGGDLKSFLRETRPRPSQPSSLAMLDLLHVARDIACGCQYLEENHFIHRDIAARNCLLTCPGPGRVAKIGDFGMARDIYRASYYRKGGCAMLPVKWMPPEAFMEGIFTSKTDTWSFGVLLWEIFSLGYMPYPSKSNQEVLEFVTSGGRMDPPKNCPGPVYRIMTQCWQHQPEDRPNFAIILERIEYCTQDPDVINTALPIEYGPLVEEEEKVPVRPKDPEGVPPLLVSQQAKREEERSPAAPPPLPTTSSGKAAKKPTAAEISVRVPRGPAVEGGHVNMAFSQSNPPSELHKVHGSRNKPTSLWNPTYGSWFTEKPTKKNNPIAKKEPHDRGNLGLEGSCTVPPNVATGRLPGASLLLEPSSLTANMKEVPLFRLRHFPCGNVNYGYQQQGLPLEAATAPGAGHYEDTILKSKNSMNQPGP

Compound	Ki
COc1cc2c(cc1Nc1cc(Cc3c(Cl)cccc3Cl)cc3cn[nH]c(=O)c13)CNCC2 [Example 74, 6-(2,6-dichlorobenzyl)-8-[(6-methoxy-1,2,3,4-tetrahydroisoquinolin-7-yl)amino]phthalazin-1(2H)-one]	4 nM
COc1cc(C2CCNCC2)ccc1Nc1cc(Cc2ccccc2Cl)nc2cn[nH]c(=O)c12 [Example 100, 2-(2-chlorobenzyl)-4-{[2-methoxy-4-(piperidin-4-yl)phenyl]amino}pyrido[2,3-d]pyridazin-5(6H)-one]	4 nM
COc1cc(C2CCNCC2)ccc1Nc1cc(Cc2c(Cl)cccc2Cl)nc2cn[nH]c(=O)c12 [Example 101, 2-(2,6-dichlorobenzyl)-4-{[2-methoxy-4-(piperidin-4-yl)phenyl]amino}pyrido[2,3-d]pyridazin-5(6H)-one]	1 nM
COc1cc(N2CCNCC2)ccc1Nc1nc(Nc2cc(Cl)ccc2Cl)cc2cn[nH]c(=O)c12 [Example 28, 7-[(2,5-dichlorophenyl)amino]-5-{[2-methoxy-4-(piperazin-1-yl)phenyl]amino}pyrido[3,4-d]pyridazin-4(3H)-one]	4 nM
COc1cc(N2CCNCC2)ccc1Nc1cc(Nc2c(Cl)cccc2Cl)nc2cn[nH]c(=O)c12 [Example 68, 2-[(2,6-dichlorophenyl)amino]-4-{[2-methoxy-4-(piperazin-1-yl)phenyl]amino}pyrido[2,3-d]pyridazin-5(6H)-one]	2 nM
COc1cc(N2CCNCC2)ccc1Nc1nc(Nc2cccc(F)c2F)cc2cn[nH]c(=O)c12 [Example 37, 7-[(2,3-difluorophenyl)amino]-5-{[2-methoxy-4-(piperazin-1-yl)phenyl]amino}pyrido[3,4-d]pyridazin-4(3H)-one]	3 nM
COc1cc(N2CCN(C3CCCCC3)CC2)ccc1Nc1nc(Cc2c(Cl)cccc2Cl)cc2cn[nH]c(=O)c12 [Example 8, 5-{[4-(4-cyclohexylpiperazin-1-yl)-2-methoxyphenyl]amino}-7-(2,6-dichlorobenzyl)pyrido[3,4-d]pyridazin-4(3H)-one]	> 470 nM
COc1cc(N2CCNCC2)ccc1Nc1nc(Nc2cc(Cl)cc(Cl)c2)cc2cn[nH]c(=O)c12 [Example 31, 7-[(3,5-dichlorophenyl)amino]-5-{[2-methoxy-4-(piperazin-1-yl)phenyl]amino}pyrido[3,4-d]pyridazin-4(3H)-one]	19 nM
COc1cc(C2CCNCC2)ccc1Nc1cc(Cc2ccccc2F)nc2cn[nH]c(=O)c12 [Example 107, 2-(2-fluorobenzyl)-4-{[2-methoxy-4-(piperidin-4-yl)phenyl]amino}pyrido[2,3-d]pyridazin-5(6H)-one]	16 nM
COc1cc(N2CCN(CCC(C)C)CC2)ccc1Nc1nc(Cc2c(Cl)cccc2Cl)cc2cn[nH]c(=O)c12 [Example 16, 7-(2,6-dichlorobenzyl)-5-({2-methoxy-4-[4-(3-methylbutyl)piperazin-1-yl]phenyl}amino)pyrido[3,4-d]pyridazin-4(3H)-one]	> 4700 nM
O=c1[nH]ncc2cc(Cc3c(Cl)cccc3Cl)nc(Nc3cc(F)c(N4CCNCC4)cc3F)c12 [Example 20, 7-(2,6-dichlorobenzyl)-5-{[2,5-difluoro-4-(piperazin-1-yl)phenyl]amino}pyrido[3,4-d]pyridazin-4(3H)-one]	3 nM
COc1cc(N2CCNCC2)ccc1Nc1nc(Nc2nccs2)cc2cn[nH]c(=O)c12 [Example 56, 5-{[2-methoxy-4-(piperazin-1-yl)phenyl]amino}-7-(1,3-thiazol-2-ylamino)pyrido[3,4-d]pyridazin-4(3H)-one]	5 nM
O=c1[nH]ncc2cc(Oc3ccccc3Cl)nc(Nc3ccc(C4CCNCC4)cn3)c12 [Example 118, 7-(2-chlorophenoxy)-5-{[5-(piperidin-4-yl)pyridin-2-yl]amino}pyrido[3,4-d]pyridazin-4(3H)-one]	15 nM
O=c1[nH]ncc2cc(Cc3c(Cl)cccc3Cl)nc(Nc3ccc(N4CCNCC4)cc3Cl)c12 [Example 57, 5-{[2-chloro-4-(piperazin-1-yl)phenyl]amino}-7-(2,6-dichlorobenzyl)pyrido[3,4-d]pyridazin-4(3H)-one]	2 nM
COc1cc(N2CCNCC2)ccc1Nc1cc(Cc2c(Cl)cccc2Cl)nc2c1C(=O)NCCN2 [Example 3, 8-(2,6-dichlorobenzyl)-6-{[2-methoxy-4-(piperazin-1-yl)phenyl]amino}-1,2,3,4-tetrahydro-5H-pyrido[2,3-e][1,4]diazepin-5-one]	660 nM
COc1cc(N2CCNCC2)ccc1Nc1nc(Nc2ccc(Cl)c(Cl)c2Cl)cc2cn[nH]c(=O)c12 [Example 77, 5-{[2-methoxy-4-(piperazin-1-yl)phenyl]amino}-7-[(2,3,4-trichlorophenyl)amino]pyrido[3,4-d]pyridazin-4(3H)-one]	4 nM
CCOc1cc(C2CCNCC2)ccc1Nc1nc(Oc2ccccc2Cl)cc2cn[nH]c(=O)c12 [Example 106, 7-(2-chlorophenoxy)-5-{[2-ethoxy-4-(piperidin-4-yl)phenyl]amino}pyrido[3,4-d]pyridazin-4(3H)-one]	21 nM
COc1cc(C2CCNCC2)ccc1Nc1cc(Cc2cccc(Cl)c2Cl)nc2cn[nH]c(=O)c12 [Example 108, 2-(2,3-dichlorobenzyl)-4-{[2-methoxy-4-(piperidin-4-yl)phenyl]amino}pyrido[2,3-d]pyridazin-5(6H)-one]	8 nM

Further lines, results first:

Ki	Compound
4 nM	Oc1nncc2cc(NCC3CC3)nc(Nc3ccc(CN4CCCC4)cc3Cl)c12 [Example 93, 5-{[2-chloro-4-(pyrrolidin-1-ylmethyl)phenyl]amino}-7-[(cyclopropylmethyl)amino]pyrido[3,4-d]pyridazin-4-ol]
138 nM	CCOc1cc(CN2CCCC2)ccc1Nc1nc(Oc2ccccc2Cl)cc2cn[nH]c(=O)c12 [Example 95, 7-(2-chlorophenoxy)-5-{[2-ethoxy-4-(pyrrolidin-1-ylmethyl)phenyl]amino}pyrido[3,4-d]pyridazin-4(3H)-one]
2 nM	COc1cc(N2CCNCC2)ccc1Nc1nc(N[C@H]2CC[C@H](O)CC2)cc2cnnc(O)c12 [Example 86, 7-[(trans-4-hydroxycyclohexyl)amino]-5-{[2-methoxy-4-(piperazin-1-yl)phenyl]amino}pyrido[3,4-d]pyridazin-4-ol]
6 nM	COc1cc(C2CCNCC2)ccc1Nc1nc(NCC2CC2)cc2cnnc(O)c12 [Example 99, 7-[(cyclopropylmethyl)amino]-5-{[2-methoxy-4-(piperidin-4-yl)phenyl]amino}pyrido[3,4-d]pyridazin-4-ol]
1 nM	COc1cc(N2CCNCC2)ccc1Nc1nc(Nc2c(F)cc(F)cc2Cl)cc2cnnc(O)c12 [Example 71, 7-[(2-chloro-4,6-difluorophenyl)amino]-5-{[2-methoxy-4-(piperazin-1-yl)phenyl]amino}pyrido[3,4-d]pyridazin-4-ol]
1 nM	Oc1nncc2cc(Cc3c(Cl)cccc3Cl)nc(Nc3ccc(N4CCNCC4)cc3)c12 [Example 5, 7-(2,6-dichlorobenzyl)-5-{[4-(piperazin-1-yl)phenyl]amino}pyrido[3,4-d]pyridazin-4-ol]
21 nM	COc1cc(N2CCNCC2)ccc1Nc1nc(NC2=N[C@H](C(C)C)CO2)cc2cnnc(O)c12 [Example 23, 5-{[2-methoxy-4-(piperazin-1-yl)phenyl]amino}-7-{[(4R)-4-(propan-2-yl)-4,5-dihydro-1,3-oxazol-2-yl]amino}pyrido[3,4-d]pyridazin-4-ol]
53 nM	COc1cc(N2CCNCC2)ccc1Nc1nc(NCCc2ccccn2)cc2cnnc(O)c12 [Example 47, 5-{[2-methoxy-4-(piperazin-1-yl)phenyl]amino}-7-{[2-(pyridin-2-yl)ethyl]amino}pyrido[3,4-d]pyridazin-4-ol]
> 470 nM	COc1cc(C(=O)N2CCCC2)ccc1Nc1nc(Oc2ccccc2Cl)cc2cnnc(O)c12 [Example 105, (4-{[7-(2-chlorophenoxy)-4-hydroxypyrido[3,4-d]pyridazin-5-yl]amino}-3-methoxyphenyl)(pyrrolidin-1-yl)methanone]
> 4700 nM	COc1cc(N2CCN(S(=O)(=O)C(C)C)CC2)ccc1Nc1nc(Cc2c(Cl)cccc2Cl)cc2cnnc(O)c12 [Example 11, 7-(2,6-dichlorobenzyl)-5-({2-methoxy-4-[4-(propan-2-ylsulfonyl)piperazin-1-yl]phenyl}amino)pyrido[3,4-d]pyridazin-4-ol]
3 nM	COc1cc(N2CCNCC2)ccc1Nc1nc(Nc2ccncc2Cl)cc2cn[nH]c(=O)c12 [Example 60, 7-[(3-chloropyridin-4-yl)amino]-5-{[2-methoxy-4-(piperazin-1-yl)phenyl]amino}pyrido[3,4-d]pyridazin-4(3H)-one]
9 nM	COc1cc(C2CCNCC2)ccc1Nc1nc(Oc2ccccc2Cl)cc2cnnc(O)c12 [Example 98, 7-(2-chlorophenoxy)-5-{[2-methoxy-4-(piperidin-4-yl)phenyl]amino}pyrido[3,4-d]pyridazin-4-ol]
> 470 nM	COc1cc(N2CCNCC2)ccc1Nc1nc(Oc2ccncc2F)cc2cnnc(O)c12 [Example 83, 7-[(3-fluoropyridin-4-yl)oxy]-5-{[2-methoxy-4-(piperazin-1-yl)phenyl]amino}pyrido[3,4-d]pyridazin-4-ol]
1 nM	COc1cc(N2CCNCC2)ccc1Nc1nc(Nc2c(Cl)cc(F)cc2Cl)cc2cnnc(O)c12 [Example 35, 7-[(2,6-dichloro-4-fluorophenyl)amino]-5-{[2-methoxy-4-(piperazin-1-yl)phenyl]amino}pyrido[3,4-d]pyridazin-4-ol]
6 nM	COc1cc(N2CCNCC2)ccc1Nc1nc(NC2CCOCC2)cc2cnnc(O)c12 [Example 55, 5-{[2-methoxy-4-(piperazin-1-yl)phenyl]amino}-7-(tetrahydro-2H-pyran-4-ylamino)pyrido[3,4-d]pyridazin-4-ol]
1.4 nM	COc1cc(N2CCNCC2)ccc1Nc1nc(Cc2c(Cl)cccc2Cl)cc2cnnc(O)c12 [Example 2, 7-(2,6-dichlorobenzyl)-5-{[2-methoxy-4-(piperazin-1-yl)phenyl]amino}pyrido[3,4-d]pyridazin-4-ol]
9 nM	O=c1[nH]ncc2cc(N3CCC(O)CC3)nc(Nc3ccc(CN4CCCC4)cc3Cl)c12 [Example 96, 5-{[2-chloro-4-(pyrrolidin-1-ylmethyl)phenyl]amino}-7-(4-hydroxypiperidin-1-yl)pyrido[3,4-d]pyridazin-4(3H)-one]
